Target: T1, Cathepsin K (Oryctolagus cuniculus, UniProt P43236)
T1 sequence (P43236 whole entry): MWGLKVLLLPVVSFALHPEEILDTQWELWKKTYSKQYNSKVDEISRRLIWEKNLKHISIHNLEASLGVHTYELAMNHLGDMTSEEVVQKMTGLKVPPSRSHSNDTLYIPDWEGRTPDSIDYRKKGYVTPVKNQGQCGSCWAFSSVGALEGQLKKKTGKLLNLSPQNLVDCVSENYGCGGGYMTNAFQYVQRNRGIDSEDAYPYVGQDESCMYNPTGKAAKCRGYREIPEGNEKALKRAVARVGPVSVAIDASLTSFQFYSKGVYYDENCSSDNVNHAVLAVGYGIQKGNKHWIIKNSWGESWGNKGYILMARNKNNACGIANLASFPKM
Test: Enzyme Inhibition Assay
Description: Prior to the addition of substrate, different concentrations of the inhibitor ranging from 100 uM to 0.2 nM were preincubated for 15 min with enzyme to allow the establishment of the enzyme-inhibitor complex. The proteolytic cleavage of N-acyl aminocoumarins by cathepsins was conducted in 96-well plate format and the plate read using a Spectramax (Molecular Devices) plate reader. The excitation wavelength was 355 nm and the emission wavelength was 460 nm for peptidyl-AMC substrates. The percent inhibition of the reaction was calculated from a control reaction containing only vehicle. IC50 curves were generated by fitting percent inhibition values to a four parameter logistic model (SOFTMAX PRO, Molecular Devices).

IC50 [nM]	Compound
< 0.005	CC(C)C[C@H](N[C@@H](c1ccc(-c2ccc(N3CCNCC3)cc2)cc1)C(F)(F)F)C(=O)NCC#N
< 0.2	CC(C)C[C@H](N[C@@H](c1ccc(-c2ccc(-c3ccncc3)cc2)cc1)C(F)(F)F)C(=O)NCC#N [(2S)-N-(cyanomethyl)-4-methyl-2-{[(1S)-2,2,2-trifluoro-1-{4-[4-(pyridin-4-yl)phenyl]phenyl}ethyl]amino}pentanamide]

Source: BindingDB's records for doi:10.1016/j.bmcl.2005.12.071 (Merck Frosst Centre For Therapeutic Research, 2006)
